The structures appear in SMILES notation.

Assay [1] concerns the target T1, Glucocorticoid receptor (Homo sapiens, UniProt P04150).
T1 sequence (P04150 whole entry): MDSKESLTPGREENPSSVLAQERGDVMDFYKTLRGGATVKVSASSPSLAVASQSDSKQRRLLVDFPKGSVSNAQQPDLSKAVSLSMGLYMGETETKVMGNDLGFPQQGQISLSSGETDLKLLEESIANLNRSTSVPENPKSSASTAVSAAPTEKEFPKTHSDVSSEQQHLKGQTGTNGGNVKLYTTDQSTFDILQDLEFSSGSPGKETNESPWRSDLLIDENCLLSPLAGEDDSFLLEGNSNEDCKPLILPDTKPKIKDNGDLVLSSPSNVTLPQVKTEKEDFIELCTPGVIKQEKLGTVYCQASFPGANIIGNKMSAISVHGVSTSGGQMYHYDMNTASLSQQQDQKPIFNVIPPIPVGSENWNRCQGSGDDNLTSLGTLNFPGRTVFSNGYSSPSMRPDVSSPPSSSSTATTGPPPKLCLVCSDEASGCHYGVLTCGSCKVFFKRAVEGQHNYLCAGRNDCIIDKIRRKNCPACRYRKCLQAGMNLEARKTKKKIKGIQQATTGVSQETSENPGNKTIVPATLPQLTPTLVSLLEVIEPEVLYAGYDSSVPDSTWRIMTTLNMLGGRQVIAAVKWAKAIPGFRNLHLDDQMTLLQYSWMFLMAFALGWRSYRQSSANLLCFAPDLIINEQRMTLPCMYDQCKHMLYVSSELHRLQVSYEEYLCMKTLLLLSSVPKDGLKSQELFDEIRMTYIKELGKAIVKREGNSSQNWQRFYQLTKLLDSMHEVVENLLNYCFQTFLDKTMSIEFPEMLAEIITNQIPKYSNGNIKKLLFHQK
Description: Agonist activity at glucocorticoid receptor in human A549 cells assessed as AP-1 transrepression by luciferase reporter gene assay. The format is cell-based. (In general: Reporter assays use an easily measured gene product as a stand-in for the process of interest.)

Assay [2] concerns the target T1, Glucocorticoid receptor. Kind of assay: Agonist activity at glucocorticoid receptor in human HeLa cells assessed as NP-1 transactivation by luciferase reporter gene assay. In kind it is cell-based.
For assay [3], the target named is T2, Androgen receptor (Homo sapiens, UniProt P10275).
T2 sequence (P10275 whole entry): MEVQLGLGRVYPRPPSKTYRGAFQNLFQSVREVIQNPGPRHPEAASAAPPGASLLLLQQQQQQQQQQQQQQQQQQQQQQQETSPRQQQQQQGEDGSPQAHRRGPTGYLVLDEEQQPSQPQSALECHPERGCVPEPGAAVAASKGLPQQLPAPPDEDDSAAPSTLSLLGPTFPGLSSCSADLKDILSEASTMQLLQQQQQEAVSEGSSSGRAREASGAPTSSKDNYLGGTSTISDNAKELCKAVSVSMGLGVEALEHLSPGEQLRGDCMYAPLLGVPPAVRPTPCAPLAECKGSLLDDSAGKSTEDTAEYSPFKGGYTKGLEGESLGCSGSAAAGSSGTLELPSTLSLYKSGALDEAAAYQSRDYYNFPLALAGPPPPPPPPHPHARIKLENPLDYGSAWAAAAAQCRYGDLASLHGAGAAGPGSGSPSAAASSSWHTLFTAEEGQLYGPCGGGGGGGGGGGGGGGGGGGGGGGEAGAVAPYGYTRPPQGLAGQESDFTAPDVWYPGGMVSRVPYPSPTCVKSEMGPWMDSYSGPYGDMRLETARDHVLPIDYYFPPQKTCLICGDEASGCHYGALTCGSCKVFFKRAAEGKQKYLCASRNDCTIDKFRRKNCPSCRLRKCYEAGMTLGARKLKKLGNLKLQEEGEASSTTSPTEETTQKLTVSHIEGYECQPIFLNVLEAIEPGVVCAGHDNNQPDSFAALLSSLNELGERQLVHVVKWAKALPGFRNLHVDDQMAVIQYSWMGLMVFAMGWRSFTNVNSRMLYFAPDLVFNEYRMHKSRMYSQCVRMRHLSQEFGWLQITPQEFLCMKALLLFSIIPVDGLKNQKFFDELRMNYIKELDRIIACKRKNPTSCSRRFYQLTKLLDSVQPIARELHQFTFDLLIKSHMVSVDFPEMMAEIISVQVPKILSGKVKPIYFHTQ
Kind of assay: Binding affinity to androgen receptor (unknown origin).

Assay [4] concerns the target T3, Estrogen receptor (Homo sapiens, UniProt P03372).
T3 sequence (P03372 whole entry): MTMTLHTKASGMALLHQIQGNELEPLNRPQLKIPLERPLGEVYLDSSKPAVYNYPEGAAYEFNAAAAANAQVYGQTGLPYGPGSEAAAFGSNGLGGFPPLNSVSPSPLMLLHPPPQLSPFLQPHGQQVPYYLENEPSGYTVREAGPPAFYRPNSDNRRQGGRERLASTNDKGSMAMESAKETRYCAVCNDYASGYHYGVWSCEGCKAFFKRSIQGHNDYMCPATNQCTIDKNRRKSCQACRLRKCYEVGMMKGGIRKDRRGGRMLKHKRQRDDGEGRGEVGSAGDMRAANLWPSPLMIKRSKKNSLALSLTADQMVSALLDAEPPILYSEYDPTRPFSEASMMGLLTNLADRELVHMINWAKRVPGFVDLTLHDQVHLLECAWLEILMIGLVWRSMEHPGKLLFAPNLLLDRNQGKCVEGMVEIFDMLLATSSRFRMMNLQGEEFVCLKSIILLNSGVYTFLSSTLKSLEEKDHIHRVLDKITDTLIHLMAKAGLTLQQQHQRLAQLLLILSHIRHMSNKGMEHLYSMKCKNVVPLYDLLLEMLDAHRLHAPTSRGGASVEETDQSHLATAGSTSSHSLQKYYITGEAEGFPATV
Description: Binding affinity to estrogen receptor-alpha (unknown origin).

Assay [5] concerns the target Cytochrome P450 3A4 (Homo sapiens, UniProt P08684). Description: Inhibition of CYP3A4 (unknown origin). The format is ADME.

Sequence of Cytochrome P450 3A4 (P08684 whole entry): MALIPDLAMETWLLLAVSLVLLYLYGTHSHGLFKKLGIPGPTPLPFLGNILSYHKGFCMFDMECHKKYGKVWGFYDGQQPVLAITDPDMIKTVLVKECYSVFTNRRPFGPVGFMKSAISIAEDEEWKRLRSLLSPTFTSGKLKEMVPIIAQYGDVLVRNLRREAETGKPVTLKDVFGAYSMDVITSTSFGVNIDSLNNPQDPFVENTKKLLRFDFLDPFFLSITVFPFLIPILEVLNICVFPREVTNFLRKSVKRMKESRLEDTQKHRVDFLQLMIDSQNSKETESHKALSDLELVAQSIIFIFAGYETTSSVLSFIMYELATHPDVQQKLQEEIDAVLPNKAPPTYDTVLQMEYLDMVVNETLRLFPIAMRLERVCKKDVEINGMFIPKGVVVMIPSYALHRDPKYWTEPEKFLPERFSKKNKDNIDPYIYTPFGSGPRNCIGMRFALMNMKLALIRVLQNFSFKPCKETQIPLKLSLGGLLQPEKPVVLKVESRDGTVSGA

Broadly, the EC50 is the concentration needed to bring the measured effect to its halfway point. As usually defined, the Ki is a measure of affinity in units of concentration, obtained from inhibition or displacement. Low values mean tighter binding, high ones weaker binding. A word on the IC50: it is the concentration needed to halve the response being measured. Consider `CC(C)(C(=O)Nc1nncs1)[C@@H]1c2ccc(-c3ccc(C(=O)N4CCOCC4)cc3)nc2Oc2c(F)cccc21`, for which the EC50 in assay [1] was 2.1 nM; in assay [2], 10.8 nM. Further, the Ki in assay [3] was greater than 50000 nM; in assay [4] it was greater than 75000 nM. The same compound displayed an IC50 in assay [5] of 300 nM.

Take `CC(C)(C(=O)NC(N)=O)[C@@H]1c2ccc(-c3ccc(C(=O)N4CCOCC4)cc3)nc2Oc2c(F)cccc21`: the EC50 in assay [1] worked out at 2.1 nM; in assay [2], 5.5 nM. For the same compound, the figures for the Ki in assay [3] and in assay [4] were greater than 50000 nM and greater than 75000 nM, respectively. This compound returned an IC50 in assay [5] greater than 40000 nM.
